From patent EP0034752A1, “Phenoxyalkane derivative and processes for preparing same” (Tanabe Seiyaku Co., Ltd., priority 1980, dated 1981)

What was measured:
[1] = test system: intracranial pressure in rats; assay: Effect of i.v. injection of test compounds on intracranial pressure in rats; format: in vivo; details: for Change (%) in intra-cranial pressure: dose one mg/kg, i.v. infusion in 5 w/v % mannitol, anesthetized male SD-rats, value before administration = 100
Description: (Effect of i.v., injection of test compounds on intracranial pressure in rats)
Male SD-rats weighing 500 to 800 g (each group consisting of 5 rats) were anesthetized with urethane. A solution of a test compound in an aqueous 5 w/v % mannitol solution was infused via the femoral vein at a rate of 0.2 ml/kg/minute for 20 minutes (when the test compound was used in the form of free base, said solution was prepared by dissolving it in an aqueous 5 w/v % mannitol solution with the aid of 0.5 N hydrochloric acid). Intracranial pressure (i.e., cerebrospinal fluid pressure in the cisterna magna) was continuously monitored via a canula introduced in the cisterna magna. The canula was connected to a transducer, and recording were made on graph paper. The effect of the test compound on-the intracranial pressure was estimated in terms of the increase or decrease in intracranial pressure, which was calculated in accordance with the following formula: […]

[2] = test system: central nervous system in mice; assay: Effect on spontaneous motor activity in mice; format: in vivo; details: Mus musculus, ip, 0.5 h; i.p., male mice; activity measured 30 minutes after administration; dose decreasing activity by 50 % of control; read-out: Effect on central nervous system (ED50, mg/kg) spontaneous mortor activity
Description: (§1) The effect of a test compound on central nervous system was examined by the following methods.
(1) Effect on spontaneous mortor activity:
A solution or suspension of a test compound in water or an aqueous carboxymethylcellulose solution was administered intraperitoneally to male mice weighing 18 to 20 g (each group consisting of 5 mice). Thirty minutes after administration of the test compound, the spontaneous mortor activity of the mice was measured with an animex activity meter for 5 minutes. The 50 % effective dose (ED50) of the test compound was estimated in terms of a dose which is necessary to decrease the mortor activity of the medicated mice by 50 % of that of a control group (i.e., non-medicated mice).

[3] = test system: central nervous system in mice; assay: Effect on sodium hexobarbital-induced anesthesia in mice; format: in vivo; details: Mus musculus, ip, 0.5 h, male mice; sodium hexobarbital 100 mg/kg i.p. 30 minutes later; dose prolonging sleeping time twice that of control
Description: as §1
(2) Effect on sodium hexobarbital-induced anesthesia:
A solution or suspension of a test compound in water or an aqueous carboxymethylcellulose solution was administered intraperitoneally to male mice weighing 18 to 20 g (each group consisting of 5 mice). Thirty minutes after intraperitoneal administration of the test compound, sodium hexobarbital (100 mg/kg) was administered intraperitoneally to the mice, and the sleeping time was measured as the interval between the loss and recovery of the righting reflex. The 50.% effective dose (ED50) of the test compound was estimated in terms of dose which is necessary to prolong the sleeping time of the medicated mice twice as long as that of a control group (i.e., non-medicated mice).

[4] = test system: central nervous system in mice; assay: Anti-apomorphine activity (cage climbing) in mice; format: in vivo; details: Mus musculus, ip, 0.5 h; i.p., male mice; apomorphine hydrochloride 2.5 mg/kg s.c. 30 minutes later; dose decreasing number of climbing mice by 50 %; read-out: Effect on central nervous system (ED50, mg/kg) Anti-apomorphine activity
Description: as §1
(3) Anti-apomorphine activity:
A solution or suspension of a test compound in water or an aqueous carboxymethylcellulose solution was administered intraperitoneally to male mice weighing 18 to 20 g (each group consisting of 5 mice). Thirty minutes after administration of the test compound, apomorphine hydrochloride (2.5 mg/kg) was administered subcutaneously to the mice, and the number of the mice which could climb a cage was examined. The 50 % effective dose (ED50) of the test compound was estimated in terms of a dose which is necessary to decrease the number of the medicated mice which could climb the cage by 50 % of the number of a control group (i.e., non-medicated mice) which could climb the cage.

[5] = Maximum tolerated dose, i.p.; set-up: species or system mice; details: mouse, in vivo, ip
[6] = 40 minutes after administration
[7] = 60 minutes after administration
[8] = 120 minutes after administration

Row | Compound | decrease in the intracranial pressure ([1]; 40 minutes after administration, dose 1 mg/kg, infused via the femoral vein of rats in 5 w/v % mannitol for 20 minutes) | Change (%) in intra-cranial pressure [1, 6] [%] | Change (%) in intra-cranial pressure [1, 7] [%] | Change (%) in intra-cranial pressure [1, 8] [%] | ED50 [2] [mg/kg] | ED50 [3] [mg/kg] | ED50 [4] [mg/kg] | MTD [5] [mg/kg]
1 | CC(=O)Nc1ccc(COCCCN2CCN(c3ccccc3)CC2)cc1 [1-(4-acetamidobenzyloxy)-3-(4-phenylpiperazino)-n-propane] | about 23% | 77.0 | 83.1 | 97.9 |  |  |  | 
2 | COc1cc(NC(C)=O)ccc1OCCCN1CCC(O)(c2ccc(Cl)cc2)CC1 [1-(4-acetamido-2-methoxyphenoxy)-3-[4-(4-chlorophenyl)-4-hydroxy-piperidino]-n-propane] |  | 94.2 | 95.4 | 90.7 |  |  |  | 
3 | COc1cc(NC(C)=O)ccc1OCC(C)CN1CCN(c2ccccc2)CC1 (centres unmarked) [1-(4-acetamido-2-methoxyphenoxy)-3-(4-phenylpiperazino)-2-methyl-n-propane] |  | 66.4 | 73.8 | 83.8 |  |  |  | 
4 | COc1cc(NC(C)=O)ccc1COCCCN1CCN(c2ccccc2)CC1 [1-(4-acetamido-2-methoxybenzyloxy)-3-(4-phenylpiperazino)-n-propane] |  |  |  |  | 5 | 10 | 7 | 100
